Reference: patent US12686687B2, “Compounds and uses thereof” (Foghorn Therapeutics Inc., priority 2019, dated 2026)

The compounds below were run against T1, Nanoluciferase-BRD9 fusion protein (3×FLAG-NLuc-BRD9) in SYO-1 cells (Homo sapiens, UniProt Q9H8M2) (assay: SYO1 BRD9 NanoLuc degradation assay). Settings: 6 hours treatment, 1 μM top dose; read-out: SYO1 BRD9-NanoLuc degradation IC50.
T1 construct: expressed in transfected cells; host or cells: SYO-1
T1 sequence (Q9H8M2 1-597): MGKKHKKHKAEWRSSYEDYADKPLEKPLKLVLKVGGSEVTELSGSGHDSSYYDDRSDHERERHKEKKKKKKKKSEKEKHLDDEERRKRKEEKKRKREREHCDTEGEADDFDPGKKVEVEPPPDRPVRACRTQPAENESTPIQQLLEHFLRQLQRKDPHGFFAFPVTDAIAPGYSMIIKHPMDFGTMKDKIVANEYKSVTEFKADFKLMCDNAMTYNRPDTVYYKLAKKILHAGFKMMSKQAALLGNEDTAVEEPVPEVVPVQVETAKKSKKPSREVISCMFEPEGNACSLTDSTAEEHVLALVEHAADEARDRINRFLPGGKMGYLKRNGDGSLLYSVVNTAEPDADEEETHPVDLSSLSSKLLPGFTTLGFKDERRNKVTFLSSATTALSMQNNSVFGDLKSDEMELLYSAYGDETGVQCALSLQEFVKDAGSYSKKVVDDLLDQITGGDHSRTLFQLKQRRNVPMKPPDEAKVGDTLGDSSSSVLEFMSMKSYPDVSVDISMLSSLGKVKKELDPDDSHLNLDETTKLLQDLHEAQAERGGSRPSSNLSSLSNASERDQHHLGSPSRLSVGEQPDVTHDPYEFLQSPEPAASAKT
Format: cell-based
In short: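 Stable SYO-1 line expressing 3×FLAG-NLuc-BRD9 was seeded at 8000 cells/well, then treated next day for 6 h with 10-point 3-fold dilutions (top 1 μM final). Nano-Glo luminescence was read. % inhibition was normalised to DMSO (high control) and 1 μM reference BRD9 degrader (low control).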

Compared with `COc1cc(-c2cn(C)c(=O)c3cc(NC(=O)C4CCN(C)CC4)sc23)cc(OC)c1CN(C)CC(=O)NCCOCCOc1cccc2c1C(=O)N(C1CCC(=O)NC1=O)C2=O` (stereo not drawn) [Compound D1, N-[7-(4-[[([[2-(2-[[2-(2,6-dioxopiperidin-3-yl)-1,3-dioxoisoindol-4-yl]oxy]ethoxy)ethyl]carbamoyl]methyl)(methyl)amino]methyl]-3,5-dimethoxyphenyl)-5-methyl-4-oxothieno[3,2-c]pyridin-2-yl]-1-methylpiperidine-4-carboxamide], `Cn1cc(-c2ccc(OCC(=O)NCCCCCCCCNc3cccc4c3C(=O)N(C3CCC(=O)NC3=O)C4=O)c(C(F)(F)F)c2)c2sc(C(=N)NC3CCS(=O)(=O)CC3)cc2c1=O` (stereo not drawn) [Compound D3, 2-(4-[2-[N-(1,1-dioxo-1λ6-thian-4-yl)carbamimidoyl]-5-methyl-4-oxo-4H,5H-thieno[3,2-c]pyridin-7-yl]-2-(trifluoromethyl)phenoxy)-N-(8-[[2-(2,6-dioxopiperidin-3-yl)-1,3-dioxo-2,3-dihydro-1H-isoindol-4-yl]amino]octyl)acetamide] is lower in DC50: > 1000 nM for the first, < 10 nM for the second.

In the case of `COc1cc(-c2cn(C)c(=O)c3cc(C(=N)NC4CCS(=O)(=O)CC4)sc23)ccc1OCC(=O)NCCCCCCCCNc1cccc2c1CN(C1CCC(=O)NC1=O)C2=O` (stereo not drawn) [Compound D2, 2-(4-[2-[N-(1,1-dioxo-A6-thian-4-yl)carbamimidoyl]-5-methyl-4-oxo-4H,5H-thieno[3,2-c]pyridin-7-yl]-2-methoxyphenoxy)-N-(8-[[2-(2,6-dioxopiperidin-3-yl)-1-oxo-2,3-dihydro-1H-isoindol-4-yl]amino]octyl)acetamide], the DC50 is reported as > 10 nM.

Same assay, conditions: Table 6C; SYO-1 cells expressing 3×FLAG-NLuc-BRD9, 6 hours incubation, 1 μM top dose; read-out: SYO1 BRD9-NanoLuc degradation IC50

`COc1cc(-c2cn(C)c(=O)c3cscc23)cc(OC)c1CN1CCC2(CC1)CN(c1ccc3c(c1)C(=O)N(C1CCC(=O)NC1=O)C3=O)C2` (stereo not drawn) [Compound D208] and `COc1cc(-c2cn(C)c(=O)c3cnsc23)cc(OC)c1CN1CCC2(CC1)CN(c1ccc3c(c1)C(=O)N(C1CCC(=O)NC1=O)C3=O)C2` (stereo not drawn) [Compound D209] cannot be ordered by DC50: < 10 nM for the first, < 10 nM for the second.

Compared with `Cn1cc(-c2cccc(C(F)(F)F)c2)c2oc(C(=O)NC3CCN(c4ccc5c(c4)C(=O)N(C4CCC(=O)NC4=O)C5)CC3)cc2c1=O` (stereo not drawn) [Compound D211], `COc1cc(OC)cc(-c2cn(C)c(=O)c3cc(C(=O)NC4CCN(c5ccc6c(c5)C(=O)N(C5CCC(=O)NC5=O)C6)CC4)oc23)c1` (stereo not drawn) [Compound D219] is lower in DC50: > 10 nM for the first, < 10 nM for the second.

`COc1cc(-c2cn(C)c(=O)c3ncsc23)cc(OC)c1CN1CC(Oc2ccc3c(c2)C(=O)N(C2CCC(=O)NC2=O)C3)C1` (stereo not drawn) [Compound D212] and `COc1cc(-c2cn(C)c(=O)c3cnsc23)cc(OC)c1CN1CC(Oc2ccc3c(c2)C(=O)N(C2CCC(=O)NC2=O)C3)C1` (stereo not drawn) [Compound D213] cannot be ordered by DC50: < 10 nM for the first, < 10 nM for the second.

`COc1cc(-c2cn(C)c(=O)c3nc(C)sc23)cc(OC)c1CN1CCC2(CC1)CN(c1ccc3c(c1)C(=O)N(C1CCC(=O)NC1=O)C3)C2` (stereo not drawn) [Compound D214] and `COc1cc(-c2cn(C)c(=O)c3scnc23)cc(OC)c1CN1CCC2(CC1)CN(c1ccc3c(c1)C(=O)N(C1CCC(=O)NC1=O)C3)C2` (stereo not drawn) [Compound D215] cannot be ordered by DC50: < 10 nM for the first, < 10 nM for the second.

`COc1cc(-c2cn(C)c(=O)c3cscc23)cc(OC)c1CN1CCC2(CC1)CN(c1ccc3c(c1)C(=O)N(C1CCC(=O)NC1=O)C3)C2` (stereo not drawn) [Compound D216] and `COc1cc(-c2cn(C)c(=O)c3ocnc23)cc(OC)c1CN1CCC2(CC1)CN(c1ccc3c(c1)C(=O)N(C1CCC(=O)NC1=O)C3)C2` (stereo not drawn) [Compound D217] cannot be ordered by DC50: < 10 nM for the first, < 10 nM for the second.

`COc1cc(-c2cn(C)c(=O)c3cc(C(=O)NC4CCN(c5ccc6c(c5)C(=O)N(C5CCC(=O)NC5=O)C6)CC4(F)F)oc23)cc(OC)c1CN(C)C` (stereo not drawn) [Compound D218] and `COc1cc(-c2cn(C)c(=O)c3cc(C(=O)NC4CCN(C(=O)c5csc(C(=O)c6c[nH]c7ccccc67)n5)CC4(F)F)sc23)cc(OC)c1CN(C)C` (stereo not drawn) [DD1] cannot be ordered by DC50: > 10 nM for the first, > 1000 nM for the second.

Compared with `COc1cc(-c2cn(C)c(=O)c3ccsc23)cc(OC)c1CN1CCC(CN2CCC3(CC2)CC(Oc2ccc4c(c2)CN(C2CCC(=O)NC2=O)C4=O)C3)CC1` (stereo not drawn) [Compound D220], `COc1cc(-c2cn(C)c(=O)c3ccsc23)cc(OC)c1CN1CCN(C(=O)c2csc(C(=O)c3c[nH]c4ccccc34)n2)CC1` [DD2] is higher in DC50: < 10 nM for the first, > 1000 nM for the second.

Each compound was assayed against T2, BRD9 bromodomain (Flag-BRD9 P133-K239; Swiss Prot Q9H8M2) (Homo sapiens, UniProt Q9H8M2) (assay: BRD9 bromodomain TR-FRET competition binding assay). Settings: 3 nM Flag-BRD9, 3.75 nM biotinylated ligand, 90 minutes at room temperature.
T2 construct: His-Flag-BRD9 (P133-K239); Swiss Prot Q9H8M2; His6 with TEV site (mgsshhhhhhenlyfq/) (N, cleaved yes); made in house
T2 sequence (Q9H8M2 133-239): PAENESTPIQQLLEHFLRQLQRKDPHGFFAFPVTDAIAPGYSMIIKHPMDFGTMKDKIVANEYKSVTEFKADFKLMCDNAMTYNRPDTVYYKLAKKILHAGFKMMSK
Protocol: Cleaved His tag was removed by purification. […] DMSO or 3-fold serially diluted compounds were then added to the Proxiplate followed by addition of Flag-BRD9. After a 10-minute incubation at room temperature, Eu-W1024 anti-FLAG (PerkinElmer, AD0273) was added.

`Cn1cc(-c2cccc(C(F)(F)F)c2)c2sc(C(=N)NC3CCS(=O)(=O)NC3)cc2c1=O` (stereo not drawn) [Compound B1, N-(1,1-dioxo-1λ6,2-thiazinan-4-yl)-5-methyl-4-oxo-7-[3-(trifluoromethyl)phenyl]thieno[3,2-c]pyridine-2-carboximidamide] and `COc1cc(-c2cn(C)c(=O)c3cc(C(=N)NC4CCS(=O)(=O)CC4)sc23)ccc1OCC(=O)O` [Compound B8, 2-(4-[2-[N-(1,1-dioxo-1λ6-thian-4-yl)carbamimidoyl]-5-methyl-4-oxo-4H,5H-thieno[3,2-c]pyridin-7-yl]-2-methoxyphenoxy)acetic Acid Trifluoroacetic Acid] cannot be ordered by IC50: > 10 nM for the first, > 10 nM for the second.

Compared with `COc1cc(-c2cn(C)c(=O)c3cc(-c4nc5ccncc5[nH]4)sc23)cc(OC)c1CN(C)C` [Compound B2, 7-[4-[(dimethylamino)methyl]-3,5-dimethoxyphenyl]-2-[3H-imidazo[4,5-c]pyridin-2-yl]-5-methylthieno[3,2-c]pyridin-4-one], `COc1ccc(-c2cn(C)c(=O)c3cc(-c4ncc[nH]4)sc23)cc1OC` [Compound B9, 7-(3,4-dimethoxyphenyl)-2-(1H-imidazol-2-yl)-5-methyl-4H,5H-thieno[3,2-c]pyridine-4-one] is higher in IC50: < 10 nM for the first, > 10 nM for the second.

`COc1cc(-c2cn(C)c(=O)c3cc(NC(=O)C4CCN(C)CC4)sc23)cc(OC)c1CN(C)C` [Compound B3, N-(7-[4-[(dimethylamino)methyl]-3,5-dimethoxyphenyl]-5-methyl-4-oxo-4H,5H-thieno[3,2-c]pyridin-2-yl)-1-methylpiperidine-4-carboxamide] and `COc1cc(-c2cn(C)c(=O)c3cc(NC(=O)C4CN(C)CCO4)sc23)cc(OC)c1CN(C)C` (stereo not drawn) [Compound B4, N-(7-[4-[(Dimethylamino)methyl]-3,5-dimethoxyphenyl]-5-methyl-4-oxo-4H,5H-thieno[3,2-c]pyridin-2-yl)-4-methylmorpholine-2-carboxamide Formic Acid] cannot be ordered by IC50: > 10 nM for the first, > 10 nM for the second.

`COc1cc(-c2cn(C)c(=O)c3cc(C(=O)NC4CCC(=O)NC4)sc23)cc(OC)c1CN(C)C` (stereo not drawn) [Compound B5, 7-[4-[(dimethylamino)methyl]-3,5-dimethoxyphenyl]-5-methyl-4-oxo-N-(6-oxopiperidin-3-yl)-4H,5H-thieno[3,2-c]pyridine-2-carboxamide] and `COc1cc(-c2cn(C)c(=O)c3cc(C(=O)NC4CCN(C)CC4)sc23)cc(OC)c1CN(C)C` [Compound B6, 7-[4-[(dimethylamino)methyl]-3,5-dimethoxyphenyl]-5-methyl-N-(1-methylpiperidin-4-yl)-4-oxo-4H,5H-thieno[3,2-c]pyridine-2-carboxamide] cannot be ordered by IC50: < 10 nM for the first, < 10 nM for the second.

`COc1cc(-c2cn(C)c(=O)c3cc(C(=O)N4CCN(C)CC4)sc23)cc(OC)c1CN(C)C` [Compound B7, 7-[4-[(dimethylamino)methyl]-3,5-dimethoxyphenyl]-5-methyl-2-(4-methylpiperazine-1-carbonyl)-4H,5H-thieno[3,2-c]pyridin-4-one] and `COc1ccc(-c2cn(C)c(=O)c3ccsc23)cc1OC` [Compound B10, 7-(3,4-dimethoxyphenyl)-5-methyl-4H,5H-thieno[3,2-c]pyridin-4-one] cannot be ordered by IC50: > 100 nM for the first, > 10 nM for the second.

`COc1cc(-c2cn(C)c(=O)c3cc(NC(=O)C4CCN(C)CC4)sc23)cc(OC)c1CN(C)CC(=O)NCCOCCOc1cccc2c1C(=O)N(C1CCC(=O)NC1=O)C2=O` (stereo not drawn) [Compound D1, N-[7-(4-[[([[2-(2-[[2-(2,6-dioxopiperidin-3-yl)-1,3-dioxoisoindol-4-yl]oxy]ethoxy)ethyl]carbamoyl]methyl)(methyl)amino]methyl]-3,5-dimethoxyphenyl)-5-methyl-4-oxothieno[3,2-c]pyridin-2-yl]-1-methylpiperidine-4-carboxamide] and `Cn1cc(-c2ccc(OCC(=O)NCCCCCCCCNc3cccc4c3C(=O)N(C3CCC(=O)NC3=O)C4=O)c(C(F)(F)F)c2)c2sc(C(=N)NC3CCS(=O)(=O)CC3)cc2c1=O` (stereo not drawn) [Compound D3, 2-(4-[2-[N-(1,1-dioxo-1λ6-thian-4-yl)carbamimidoyl]-5-methyl-4-oxo-4H,5H-thieno[3,2-c]pyridin-7-yl]-2-(trifluoromethyl)phenoxy)-N-(8-[[2-(2,6-dioxopiperidin-3-yl)-1,3-dioxo-2,3-dihydro-1H-isoindol-4-yl]amino]octyl)acetamide] cannot be ordered by IC50: > 100 nM for the first, > 10 nM for the second.

For `COc1cc(-c2cn(C)c(=O)c3cc(C(=N)NC4CCS(=O)(=O)CC4)sc23)ccc1OCC(=O)NCCCCCCCCNc1cccc2c1CN(C1CCC(=O)NC1=O)C2=O` (stereo not drawn) [Compound D2, 2-(4-[2-[N-(1,1-dioxo-A6-thian-4-yl)carbamimidoyl]-5-methyl-4-oxo-4H,5H-thieno[3,2-c]pyridin-7-yl]-2-methoxyphenoxy)-N-(8-[[2-(2,6-dioxopiperidin-3-yl)-1-oxo-2,3-dihydro-1H-isoindol-4-yl]amino]octyl)acetamide], the IC50 was < 10 nM.
